In ChEMBL document CHEMBL3880437, “Modulators of the prostacyclin (PGI2) receptor useful for the treatment of disorders related thereto” (2014):

What was measured:
[1] = tested on: Platelet; assay: Inhibition of ADP-induced platelet aggregation in human platelet rich plasma pre-incubated for 1 min before ADP addition and measured 3 mins post ADP addition by aggregometry; type: functional
[2] = biological target: Prostacyclin receptor (Homo sapiens, UniProt P43119); assay: Agonist activity at human recombinant prostacyclin receptor expressed in CHO-K1 cells assessed as induction of cAMP accumulation incubated for 1 hr by HTRF assay; type: functional, cell-based
Prostacyclin receptor, sequence (P43119 whole entry): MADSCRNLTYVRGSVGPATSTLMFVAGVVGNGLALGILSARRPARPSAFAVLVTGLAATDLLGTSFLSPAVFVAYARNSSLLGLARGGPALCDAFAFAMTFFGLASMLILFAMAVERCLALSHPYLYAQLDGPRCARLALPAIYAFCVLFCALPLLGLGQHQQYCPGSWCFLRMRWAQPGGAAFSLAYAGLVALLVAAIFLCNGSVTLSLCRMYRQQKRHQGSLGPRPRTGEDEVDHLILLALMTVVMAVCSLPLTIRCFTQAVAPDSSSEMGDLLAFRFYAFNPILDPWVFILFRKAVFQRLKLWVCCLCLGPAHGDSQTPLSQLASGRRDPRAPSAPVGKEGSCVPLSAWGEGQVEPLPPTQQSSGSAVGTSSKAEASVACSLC

SMILES	IC50 [1] [nM]	EC50 [2] [nM]
O=C(O)COC[C@H]1CC[C@@H](COC(=O)N(c2ccccc2)c2ccc(Cl)cc2)CC1	10.5 to 1590	
COc1cccc(N(C(=O)OC[C@H]2CC[C@@H](COCC(=O)O)CC2)c2ccccc2)c1	10.5 to 1590	2.7 to 2650
COc1cccc(N(C(=O)OC[C@H]2CC[C@H](COCC(=O)O)CC2)c2ccccc2)c1	10.5 to 1590	2.7 to 2650
O=C(O)COC[C@H]1CC[C@H](CNC(=O)N(c2ccccc2)c2ccc(F)cc2)CC1	10.5 to 1590	2.7 to 2650
Cc1cccc(N(C(=O)OC[C@H]2CC[C@H](COCC(=O)O)CC2)c2ccc(F)cc2)c1	10.5 to 1590	2.7 to 2650
O=C(O)COC[C@H]1CC[C@H](CNC(=O)N(c2ccccc2)c2cccc(Cl)c2F)CC1	10.5 to 1590	2.7 to 2650
Cc1ccc(N(C(=O)OC[C@H]2CC[C@@H](COCC(=O)O)CC2)c2ccccc2)cc1	10.5 to 1590	2.7 to 2650
Cc1cnc(N(C(=O)OC[C@H]2CC[C@H](COCC(=O)O)CC2)c2ccccc2)s1	10.5 to 1590	2.7 to 2650
O=C(O)COC[C@H]1CC[C@H](COC(=O)N(c2ccc(O)cc2)c2ccc(Cl)cc2)CC1	10.5 to 1590	2.7 to 2650
O=C(O)COC[C@H]1CC[C@H](COC(=O)N(c2ccc(F)cc2)c2ccc(F)cc2)CC1	10.5 to 1590	2.7 to 2650
O=C(O)COC[C@H]1CC[C@H](COC(=O)N(c2ccccc2)c2cc(F)cc(F)c2)CC1	10.5 to 1590	2.7 to 2650
O=C(O)COC[C@H]1CC[C@H](CNC(=O)N(c2ccccc2)c2cccc(F)c2F)CC1	10.5 to 1590	2.7 to 2650
Cc1ccc(N(C(=O)OC[C@H]2CC[C@H](COCC(=O)O)CC2)c2ccc(F)cc2)s1	10.5 to 1590	2.7 to 2650
COc1ccc(N(C(=O)NC[C@H]2CC[C@H](COCC(=O)O)CC2)c2ccccc2)c(C)c1	10.5 to 1590	2.7 to 2650
O=C(O)COC[C@H]1CC[C@H](COC(=O)N(c2ccc(F)cc2)c2ccc(Cl)cc2)CC1	10.5 to 1590	2.7 to 2650
O=C(O)COC[C@H]1CC[C@H](CNC(=O)N(c2ccccc2)c2cc(F)cc(F)c2)CC1	10.5 to 1590	2.7 to 2650
O=C(O)COC[C@H]1CC[C@H](COC(=O)N(c2ccc(F)nc2)c2cccc(F)c2)CC1	10.5 to 1590	2.7 to 2650
Cc1cc(C)cc(N(C(=O)OC[C@H]2CC[C@H](COCC(=O)O)CC2)c2cccc(F)c2)c1	10.5 to 1590	2.7 to 2650
O=C(O)COC[C@H]1CC[C@H](COC(=O)N(c2ccccc2)c2cccnc2)CC1	10.5 to 1590	2.7 to 2650
COc1ccc(N(C(=O)OC[C@H]2CC[C@@H](COCC(=O)O)CC2)c2ccccc2)cc1	10.5 to 1590	2.7 to 2650
O=C(O)COC[C@H]1CC[C@H](CNC(=O)N(c2ccccc2)c2ccc(F)c(F)c2)CC1	10.5 to 1590	2.7 to 2650
O=C(O)COC[C@H]1CC[C@H](COC(=O)N(c2ccccc2)c2cnccn2)CC1	10.5 to 1590	2.7 to 2650

SMILES	IC50 [1] [nM]	EC50 [2] [nM]
O=C(O)COC[C@H]1CC[C@H](COC(=O)N(c2ccccc2)c2ccc(F)cn2)CC1	10.5 to 1590	2.7 to 2650
COc1cccc(N(C(=O)NC[C@H]2CC[C@H](COCC(=O)O)CC2)c2ccccc2)c1F	10.5 to 1590	2.7 to 2650
CN(C[C@H]1CC[C@H](COCC(=O)O)CC1)C(=O)N(c1ccccc1)c1ccccc1	10.5 to 1590	2.7 to 2650
Cc1ccc(N(C(=O)OC[C@H]2CC[C@H](COCC(=O)O)CC2)c2cccc(F)c2)cc1F	10.5 to 1590	2.7 to 2650
O=C(O)COC[C@H]1CC[C@H](CNC(=O)N(c2ccccc2)c2cc(F)cc(Cl)c2)CC1	10.5 to 1590	2.7 to 2650
O=C(O)COC[C@H]1CC[C@H](COC(=O)N(c2ccc(F)cc2)c2cccc(Cl)c2)CC1	10.5 to 1590	2.7 to 2650
COc1cccc(N(C(=O)OC[C@H]2CC[C@H](COCC(=O)O)CC2)c2cccc(F)c2)c1	10.5 to 1590	2.7 to 2650
O=C(O)COC[C@H]1CC[C@H](COC(=O)N(c2cccnc2)c2cccc(F)c2)CC1	10.5 to 1590	2.7 to 2650
Cc1cccc(N(C(=O)NC[C@H]2CC[C@H](COCC(=O)O)CC2)c2ccccc2)c1	10.5 to 1590	2.7 to 2650
Cc1ccc(N(C(=O)NC[C@H]2CC[C@H](COCC(=O)O)CC2)c2ccc(C)cc2)cc1	10.5 to 1590	2.7 to 2650
COc1cncc(N(C(=O)OC[C@H]2CC[C@H](COCC(=O)O)CC2)c2ccccc2)c1	10.5 to 1590	2.7 to 2650
O=C(O)COC[C@H]1CC[C@H](COC(=O)N(c2cccc(F)c2)c2cnccn2)CC1	10.5 to 1590	2.7 to 2650
COc1ccc(N(C(=O)OC[C@H]2CC[C@H](COCC(=O)O)CC2)c2cccc(F)c2)cc1	10.5 to 1590	
O=C(O)COC[C@H]1CC[C@@H](COC(=O)N(c2ccccc2)c2ccc(F)cc2)CC1	10.5 to 1590	
O=C(O)COC[C@H]1CC[C@H](COC(=O)N(c2ccccc2)c2cc(F)cc(Cl)c2)CC1	10.5 to 1590	2.7 to 2650
O=C(O)COC[C@H]1CC[C@H](CNC(=O)N(c2ccccc2)c2ccc(Cl)c(F)c2)CC1	10.5 to 1590	2.7 to 2650
O=C(O)COC[C@H]1CC[C@H](COC(=O)N(c2cccc(F)c2)c2cc(F)cc(F)c2)CC1	10.5 to 1590	2.7 to 2650
O=C(O)COC[C@H]1CC[C@H](COC(=O)Nc2ccccc2)CC1	10.5 to 1590	2.7 to 2650
CCOc1ccc(N(C(=O)OC[C@H]2CC[C@H](COCC(=O)O)CC2)c2cccc(F)c2)cc1	10.5 to 1590	2.7 to 2650
O=C(O)COC[C@H]1CC[C@H](COC(=O)N(c2ccccc2)c2ccc(F)cc2)CC1	10.5 to 1590	
Cc1ccc(N(C(=O)NC[C@H]2CC[C@H](COCC(=O)O)CC2)c2ccccc2)cc1	10.5 to 1590	2.7 to 2650
O=C(O)COC[C@H]1CC[C@H](COC(=O)N(c2cccc(F)c2)c2ccc(F)c(F)c2)CC1	10.5 to 1590	2.7 to 2650

SMILES	IC50 [1] [nM]	EC50 [2] [nM]
O=C(O)COC[C@H]1CC[C@H](COC(=O)N(c2ccccc2)c2ccc(F)nc2)CC1	10.5 to 1590	2.7 to 2650
O=C(O)COC[C@H]1CC[C@H](CNC(=O)NC(c2ccccc2)c2ccccc2)CC1	10.5 to 1590	2.7 to 2650
O=C(O)COC[C@H]1CC[C@H](COC(=O)N(c2cccc(F)c2)c2ccc(Cl)c(F)c2)CC1	10.5 to 1590	2.7 to 2650
O=C(O)COC[C@H]1CC[C@H](COC(=O)N(c2ccccc2)c2ccc(F)c(F)c2)CC1	10.5 to 1590	2.7 to 2650
O=C(O)COC[C@H]1CC[C@H](CNC(=O)N(c2ccccc2)c2cccc(Cl)c2)CC1	10.5 to 1590	
O=C(O)COC[C@H]1CC[C@H](COC(=O)N(c2cccc(F)c2)c2ccc(F)c(Cl)c2)CC1	10.5 to 1590	2.7 to 2650
COc1ccc(N(C(=O)OC[C@H]2CC[C@H](COCC(=O)O)CC2)c2ccccc2)cc1	10.5 to 1590	2.7 to 2650
O=C(O)COC[C@H]1CC[C@H](COC(=O)N(c2cccc(F)c2)c2cccc(OC(F)(F)F)c2)CC1	10.5 to 1590	2.7 to 2650
Cc1cccc(N(C(=O)OC[C@H]2CC[C@@H](COCC(=O)O)CC2)c2ccccc2)c1	10.5 to 1590	2.7 to 2650
CN(C(=O)NC[C@H]1CC[C@H](COCC(=O)O)CC1)C(c1ccccc1)c1ccccc1	10.5 to 1590	2.7 to 2650
O=C(O)COC[C@H]1CC[C@H](COC(=O)N(c2ccccc2)c2ccc(Cl)c(F)c2)CC1	10.5 to 1590	2.7 to 2650
Cc1ccc(N(C(=O)OC[C@H]2CC[C@H](COCC(=O)O)CC2)c2ccccc2)cc1	10.5 to 1590	2.7 to 2650
Cc1cncc(N(C(=O)OC[C@H]2CC[C@H](COCC(=O)O)CC2)c2ccccc2)c1	10.5 to 1590	2.7 to 2650
O=C(O)COC[C@H]1CC[C@H](COC(=O)N(c2ccc(Cl)cc2)c2cccc(F)c2)CC1	10.5 to 1590	2.7 to 2650
O=C(O)COC[C@H]1CC[C@H](COC(=O)N(c2ccccc2)c2ccc(F)c(Cl)c2)CC1	10.5 to 1590	2.7 to 2650
Cc1ccc(N(C(=O)OC[C@H]2CC[C@H](COCC(=O)O)CC2)c2cccc(F)c2)s1	10.5 to 1590	
O=C(O)CNC(=O)COC[C@H]1CC[C@H](COC(=O)N(c2ccccc2)c2ccc(Cl)cc2)CC1	10.5 to 1590	
O=C(O)COC[C@H]1CC[C@H](COC(=O)N(c2ccccc2)c2cccc(Cl)c2)CC1	10.5 to 1590	
O=C(O)COC[C@H]1CC[C@@H](COC(=O)N(c2ccccc2)c2cccc(F)c2)CC1	10.5 to 1590	
O=C(O)COC[C@H]1CC[C@@H](CNC(=O)N(c2ccccc2)c2ccccc2)CC1	10.5 to 1590	
